Laboratory results reported in patent US4261994A, “1,2,4-Oxadiazole derivatives, their preparation and pharmaceutical use” (Synthelabo, priority 1977, dated 1981).
Like-named read-outs stand apart in the source and are kept apart here.

Assays:
[1] = system: spontaneously hypertonic male rats; assay: Anti-hypertensive activity in spontaneously hypertonic male rats (method of Gerold and Tschirky), systolic pressure by pulse at caudal artery; assay type: in vivo; conditions: Rattus norvegicus, po; for change in vivo at 20 mg/kg: administered dose 20 mg/kg orally; for change in vivo at 5 mg/kg: administered dose 5 mg/kg orally
Description: The anti-hypertensive activity is evaluated on spontaneously hypertonic male rats in accordance with the method of Gerold and Tschirky (Arzneim. Forsch, 1968, 18, 1,285). The systolic pressure is measured by taking the pulse at the level of the caudal artery. […]

[2] = Toxicity, 50% lethal dose, intraperitoneal administration to CD1 male rats; conditions: rat, in vivo, ip; intraperitoneally to rats, fasted 18 hours; read-out: 50% lethal dose (LD 50)
Description: The toxicity of the compounds (I) was determined by intraperitoneal administration to CD1 (Charles River) male rats weighing 100 to 120 g, which had fasted for 18 hours.

[3] = 4 hours, read-out: Anti-hypertensive activity %, 4 hours
[4] = 24 hours, read-out: Anti-hypertensive activity %, 24 hours

Compound `CN(C)c1noc(Cc2c(Cl)cccc2Cl)n1` [Compound 1] has a change in vivo at 20 mg/kg [1, 3] of -33% and a change in vivo at 20 mg/kg [1, 4] of -14%.
Compound `CNc1noc(Cc2c(Cl)cccc2Cl)n1` [Compound 2, 3-Methylamino-5-(2,6-dichlorobenzyl)-1,2,4-oxadiazole] has a change in vivo at 20 mg/kg [1, 3] of -18% and a change in vivo at 20 mg/kg [1, 4] of -9%.
Compound `CN(C)CCCNc1noc(Cc2c(Cl)cccc2Cl)n1` [Compound 6] has an LD50 [2] of less than 250 mg/kg, a change in vivo at 20 mg/kg [1, 3] of -5% and a change in vivo at 20 mg/kg [1, 4] of -7%.
In the case of `CN(C)C=Nc1noc(Cc2c(Cl)cccc2Cl)n1` [Compound 9], the LD50 [2] is reported as greater than 500 mg/kg, the change in vivo at 20 mg/kg [1, 3] is reported as -29% and the change in vivo at 20 mg/kg [1, 4] is reported as -15%.
For `CN1CCN(C=Nc2noc(Cc3c(Cl)cccc3Cl)n2)CC1` [Compound 10], the LD50 [2] was less than 500 mg/kg and the change in vivo at 20 mg/kg [1, 3] was -29%.
Work on `OCCN(C=Nc1noc(Cc2c(Cl)cccc2Cl)n1)CCO` [Compound 11, 3-[N,N-Bis-(2-hydroxyethyl)-formamidino]-5-(2,6-dichlorobenzyl)-1,2,4-oxadiazole] yielded an LD50 [2] of no less than 500 mg/kg and a change in vivo at 20 mg/kg [1, 3] of -32%.
Compound `Cc1cccc(C)c1Cc1nc(N=CN(C)C)no1` [Compound 14] has a change in vivo at 20 mg/kg [1, 3] of -22% and a change in vivo at 20 mg/kg [1, 4] of -13%.
Compound `CN(C)C=Nc1noc(Cc2c(F)cccc2Cl)n1` [Compound 15] has an LD50 [2] of no more than 500 mg/kg, a change in vivo at 5 mg/kg [1, 3] of -26% and a change in vivo at 5 mg/kg [1, 4] of -6%.
Work on `Nc1noc(Cc2c(F)cccc2F)n1` [Compound 16] yielded a change in vivo at 5 mg/kg [1, 3] of -18% and a change in vivo at 5 mg/kg [1, 4] of -1%.
For `Nc1noc(Cc2c(Cl)cccc2Cl)n1` [Compound 18, 3-Amino-5-(2,6-dichlorobenzyl)-1,2,4-oxadiazole], the LD50 [2] was 250 mg/kg, the change in vivo at 5 mg/kg [1, 3] was -18% and the change in vivo at 5 mg/kg [1, 4] was -3%.
`Nc1noc(Cc2cc(Cl)ccc2Cl)n1` [Compound 19] showed an LD50 [2] of no less than 500 mg/kg, a change in vivo at 5 mg/kg [1, 3] of -18% and a change in vivo at 5 mg/kg [1, 4] of -3%.
